From article PMC10515483, “Structure–Reactivity Studies of 2-Sulfonylpyrimidines Allow Selective Protein Arylation” (Bioconjugate Chemistry, 2023)

How the values were obtained:
[1] = GSH arylation rate constants (NMR; UV-vis for fast warheads); assay type: physicochemical; parameters: key to rate constant (k) for the reaction with GSH / k: NR = no reaction; conditions: for k change (vs ref): ratio to rate constant of 4q, acceleration (+) or deceleration (-)
From the text: We employed nuclear magnetic resonance (NMR) and UV–vis to quantify the reactivity of our 2-SP derivatives and other representative electrophiles (Figure 2) against cysteine. NMR allowed straightforward determination of reaction rate constants through dual monitoring of the consumption of the warhead and formation of the product by integration of their respective NMR signals (Figures S1–S3). It simultaneously provided a direct readout on reaction specificity and hydrolytic stability of the warhead. All measurements were carried out in KPi buffer in the presence of 5% d^6-dmso, which is generally well-tolerated by a wide range of proteins in in vitro studies. N-acetylcysteine methylester (NACME) and L-glutathione (GSH) are useful model cysteine nucleophiles for in vitro studies of electrophilic agents.[32] Mixing reference electrophile 2-methylsulfonylpyrimidine (4q) with NACME or GSH in a 1:10 ratio (pseudo-first-order conditions) allowed extraction of accurate and reproducible second order rate constants (k).
Figure 3 In vitro determination of electrophilic reactivity of compounds. (A) NMR assay setup for warhead/GSH reaction rate constant determination and chemoselectivity monitoring, over a 6 h time scale. Purple bead = GSH. Hydrolytic stability was determined in the same way over 36 h. d^4-Trimethylsilylpropanoate (TMSP, blue box) was used as an internal standard for monitoring the warhead solubility. Second-order reaction rate constants (k) were obtained from their pseudo-first-order counterparts (k′), by time-dependent normalized integration of the disappearing warhead signals. […] (B) Experimental second-order rate constants (y axis, log10 scale) for the reaction of representative 2-SP derivatives (left, 11 out of ca. 40 examples) and previously reported heteroarylsulfones (right) with GSH in a KPi buffer, pH 7.0, 20 °C. All rate constants were calculated as an average of at least two independent measurements. Numerical values and standard deviations at both pH 7.0 and 6.5, along with a full list of 2-SPs and other electrophile types tested, are presented in Tables S2–S6 and Figure S4. The horizontal dashed line marks the reaction rate of 2-methylsulfonylpyrimidine at pH 7.0, as a reference when comparing with other reagents (see main text).
To establish an accurate structure–reactivity profile of 2-SP reagents, we systematically determined their reaction rate constants for the arylation of GSH by NMR, at pH 7.0 and 6.5. This was a prerequisite to (i) quantify the influence of substitution on reaction rates; (ii) accurately assess the tunability and chemoselectivity of 2-SPs for cysteine arylation; (iii) determine the influence of pH on the reaction rates to further inform on the precise reaction mechanism; and (iv) benchmark the overall performance of 2-SPs with those of previously reported fast reacting heteroarylsulfones and other common cysteine reactive warheads (Figure 2C,D).

[2] = Hydrolytic stability in KPi buffer without thiol (NMR); assay type: physicochemical; conditions: pH 8.2; over 12 hours; 50 mM KPi; footnote a: crashing out of solution, no degradation product
Procedure: NMR studies: rate constant determination and hydrolytic stability. 850 µL of 50 mM Kpi buffer solution (pH 8.2 or 7), 20 µL of the appropriate pyrimidine stock s olution (100 mM in DMSO -d6), 20 µL of TMSP stock solution (22.2 mM in DI water), 30 µL DMSO -d6, and 80 µL of GSH stock solution (0.25 M in DI water, reactivity only) were successively added/mixed at room temperature, final pH 7.0 or 6.5 (Table S1). 600 µL of this freshly prepared solution was poured into an NMR tube and immediately […]
transferred to the NMR instrument for acquisition. 1H spectra (16 scans) were recorded every 10 minutes under water suppression conditions. Following acquisition, spectra were analysed using […]
order reaction rate constants (k’).

[3] = target: T1, p53-Y220C DBD (Homo sapiens, UniProt P04637, M133L/N239Y/N268D/V203A/Y220C); experiment: Protein arylation by ESI mass spectrometry; assay type: binding
T1 construct: (residues 94-312); 6xHis/lipoyl domain/TEV protease cleavage site (N, cleaved yes); made in house; host or cells: E. coli C41
Procedure: In mass spectrometry experiments, we incubated 50 μM purified p53-Y220C DBD in KPi buffer at varying pH’s (6.0–8.0), temperatures (0 and 20 °C), and equivalents of 2-SPs (20–100). Representative 2-SPs were selected to span a broad reactivity range to determine whether trends observed in GSH in vitro assays translate to relative rates of modification of solvent exposed cysteines in folded proteins. […] The same could also be achieved with only 20 equiv of reagent by increasing the temperature to 20 °C, or raising the pH to 8.0. This is an important result because late-stage protein functionalization with bromo- and iodo-(hetero)aromatic motifs is challenging and inaccessible by metal-catalyzed arylation methodologies due to dehalogenation and/or off-target specificity. The introduction of an iodo-(hetero)aromatic motif on the protein surface facilitates drastically the crystal structure resolution with a sharp variation of density. […] Overall, we observed good correlation between GSH and protein experiments.
Figure 4 Biophysical and structural characterization of protein cysteine arylation by 2-SPs. […] Stoichiometry, reaction time/temperature, and pH are indicated in each case. X axis: m/z (Da). Y axis: normalized intensities as a percentage of the most intense peak. Middle: Structure of the modified Y220C mutant (green) superimposed onto the structure of the unmodified protein (gray, PDB entry 6SHZ)[40] showing the region around modified C182 (E) and C277 (F). Hydrogen bonds formed by the pyrimidine are highlighted as dashed yellow lines. 2Fo – Fc electron density maps are shown at a contour level of 1.3σ for segments of chain B including the modified residues C182 and C277. Bottom (F): Protein thermal stability (ΔTm, °C) of p53-Y220C, β-catenin ARD. and FGE, determined by DSF in the presence of 100 μM 2-SP derivatives. […]

[4] = Solubility in KPi buffer by NMR with TMSP internal standard; conditions: 50 mM KPi aqueous buffer, pH 7, aqueous with cosolvent or surfactant or cyclodextrin, kinetic from dmso stock
From the text: Stability and solubility assays
(§1) TopSpin. Normalised integrations of the pyrimidine aromatic 1H signals in the starting material and
(§2) product were plotted as a function of time (s), using the TMSP peak as standard for integral
(§3) calibration/normalisation and monitoring of compound solubility, allowing extraction of pseudo first
(§4) order reaction rate constants (k’). Second order rate constants (k) were back calculated from the ratio
(§5) of the pseudo first counterparts and the concentration of thiol in solution.
(§6) was confirmed by formation of a single S-arylated product (characteristic 2-alkylthioether signals),
(§7) concomitant with formation of the sulfinic acid by -product (leaving group). Hydrolytic stability
(§8) assessment was performed at pH 7.0 and pH 8.2 in a similar manner, in the absence of thiol.
(§9) Chemoselectivity. Similarly, but replacing GSH by other amino acids , reference 2-
(§10) methylsulfonylpyrimidine 4q in 50 mM KPi (pH 8.2) was incubated with 10 equivalents of either Boc-
(§11) Lys-OH, L-ser-OMe, N-Ac-Tyr-OH or Proline were used.

[5] = test system: p53; parameters: method as in PMID 19411067; conditions: in vitro; cited from earlier work
[6] = parameters: method as in PMID 11747461; conditions: cited from earlier work
[7] = pH 7
From the text: Stability and solubility assays
as §1, §2, §3, §4, §5, §6, §7, §8, §9, §10, §11

## COC(=O)c1cnc(S(C)(=O)=O)nc1 [4y]
[1]; Table S8, rate constants obtained at pH = 7
  k: 9900 M⁻¹ s⁻¹
[1]; pH 7.0, KPi buffer
  second order rate constant k with GSH: ≈ 9900 M^–1 s^–1
[1]; pH 7.0
  k change (vs ref): +396,000 fold
[1]; relative to 4q
  k/kref: 396000
[1]; relative to 4q, via -RTln(k/kref)
  ΔΔG≠1exp: -7.65 kcal/mol
[2]
  % degradation: 100%
[3]; 20 equiv, pH 6.0, 0 °C
  protein arylation by ESI-MS (in words): complete and clean double protein arylation
  time to complete double arylation: under 30 s
other
  melting point: 128 °C
[4]
  solubility: ≥ 2000 µM

## C=C1C(=O)C2CCN1CC2 [APR-244-MQ]
[5]
  number of cysteines reacted: up to nine

## COc1cnc(S(C)(=O)=O)nc1 [4n]
[1]; pH 6.5, by NMR, KPi buffer, 5% DMSO-d6
  rate constant (k) for the reaction with GSH: NR
[1]; pH 7.0, KPi buffer
  second order rate constant k with GSH: < 5.0 × 10^–5 M^–1 s^–1
[1]; pH 7.0, by NMR, KPi buffer, 5% DMSO-d6
  rate constant (k) for the reaction with GSH: NR
[3]; 50 μM protein, all conditions tested, even after 4 h at 20 °C
  protein modification by ESI-MS (in words): could not detect any protein modification

## N[C@@H](CCC(=O)N[C@@H](CS)C(=O)NCC(=O)O)C(=O)O [GSH, L-glutathione]
[6]
  pKa of the sulfhydryl group: 9.2

## COC(=O)[C@H](CS)NC(C)=O [NACME, N-acetylcysteine methylester]
[6]
  pKa of the sulfhydryl group: 8.3

## 2-methylsulfonyl-1,3,4-oxadiazole 5-phenyl [compound 8, reference compound]
[1]; pH 6.5, measured by UV titrations
  rate constant (k) for the reaction with GSH: 35 ± 2 M⁻¹ s⁻¹
[1]; pH 7.0, KPi buffer
  second order rate constant k with GSH: ≈ 160 M^–1 s^–1
[1]; pH 7.0, measured by UV titrations
  rate constant (k) for the reaction with GSH: 160 ± 9.2 M⁻¹ s⁻¹
[1]; pH 7.0
  k change (vs ref): +6,400 fold
[7]
  Solubility upon mixing (t0): 100 µM
